Values of other authors as cited in US20030191121A1, “Piperazine carboxamide intermediates of HIV protease inhibitors and processes for their preparation” (priority 2001, published 2003).

System: HIV
Details: HIV-infected patients, in combination with nucleoside reverse transcriptase inhibitors

CC(C)(C)NC(=O)[C@@H]1CN(Cc2cccnc2)CCN1C[C@@H](O)C[C@@H](Cc1ccccc1)C(=O)N[C@H]1c2ccccc2C[C@H]1O [Indinavir, indinavir]
reducing HIV viral loads and increasing CD4 cell counts: highly effective
